Source: patent publication US10028961B2, “Therapeutically active compounds and their methods of use” (AGIOS PHARMACEUTICALS, INC., priority 2013, dated 2018)

Columns and labels:
[1] = target: IDH1 wt/IDH1 R132H heterodimer (Homo sapiens (Human), UniProt O75874, R132H); assay: In vitro assay for IDH1m R132H inhibitors, IDH1 wt/IDH1 R132H heterodimer, NADPH depletion (diaphorase/resazurin); format: biochemical; details: IDH1 wt/R132H heterodimer, NADPH/NADP, not saturated; read-out: IDH1 wt/R132H NADPH/NADP IC50 not saturated
How it was run: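 Read-out is NADPH left after α-KG reduction to 2-HG, measured via resorufin fluorescence after 5 min diaphorase/resazurin step at 25° C. Enzyme is sf9-expressed IDH1wt-his/IDH1R132H-flag heterodimer, pre-incubated 1 hr at room temperature with compound and cofactor. IC50s from DMSO stocks diluted 1:50.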

[2] = target: IDH1-R132H homodimer enzyme (Homo sapiens (Human), UniProt O75874, R132H); assay: In vitro assay IDH1-R132H homodimer, NADPH depletion assay with NADPH/NADP preincubation; format: biochemical; details: 5 μM NADPH and 37.5 μM NADP
How it was run: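 Compounds were added from DMSO at 50× final concentration, and the mutant enzyme was incubated 60 min at room temperature after starting with a substrate mix holding NADPH and 5 mM alpha-ketoglutarate. Residual cofactor, read by fluorescence after excess diaphorase and resazurin, reflects enzyme turnover.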

IDH2 R140Q = IDH2 R140Q (Homo sapiens (Human), UniProt P48735, R140Q); assay: In vitro assay for IDH2m R140Q inhibitors, cofactor depletion assay; format: biochemical; details: IDH2 R140Q enzyme
How it was run: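 Remaining cofactor measured fluorimetrically: diaphorase/resazurin Stop Mix […], halting the reaction. Before that, mutant enzyme and compound sat 1 h at RT, then substrate mix (4 μM NADPH, 1.6 mM α-KG) was added for 16 h at RT.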

HT1080 cells = assay: Cellular assay for IDH1m R132C inhibitors, 2-HG by LC-MS in HT1080 cells; format: cell-based; details: Homo sapiens, HT-1080
How it was run: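 2-HG levels were measured by LC-MS in culture medium sampled 48 h after compound addition (0.2% DMSO) to HT1080 cells seeded overnight at 5000 cells/well. A CellTiter-Glo luminescence read at 72 h gave cell viability.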

[3] = test system: U87MG pLVX-IDH2 R140Q-neo cells; assay: U87MG pLVX-IDH2 R140Q-neo cell based assay, 2-HG by LC-MS; details: Homo sapiens, U-87 MG
[4] = test system: Neurosphere cells (TS603); assay: Cellular assay for IDH1m R132H inhibitors, 2-HG by LC-MS in neurosphere cells (TS603); format: cell-based; details: 2-HG in media at 48 hours
How it was run: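 TS603 neurosphere cells in NeuroCult medium were dosed with compound (0.25% DMSO final) at 37 C, 5% CO2. After 48 hours, medium 2-HG was measured by LC-MS. At 72 hours, viability was read by CellTiter-Glo luminescence.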

Chain of IDH2 R140Q (P48735 40-452 R140Q): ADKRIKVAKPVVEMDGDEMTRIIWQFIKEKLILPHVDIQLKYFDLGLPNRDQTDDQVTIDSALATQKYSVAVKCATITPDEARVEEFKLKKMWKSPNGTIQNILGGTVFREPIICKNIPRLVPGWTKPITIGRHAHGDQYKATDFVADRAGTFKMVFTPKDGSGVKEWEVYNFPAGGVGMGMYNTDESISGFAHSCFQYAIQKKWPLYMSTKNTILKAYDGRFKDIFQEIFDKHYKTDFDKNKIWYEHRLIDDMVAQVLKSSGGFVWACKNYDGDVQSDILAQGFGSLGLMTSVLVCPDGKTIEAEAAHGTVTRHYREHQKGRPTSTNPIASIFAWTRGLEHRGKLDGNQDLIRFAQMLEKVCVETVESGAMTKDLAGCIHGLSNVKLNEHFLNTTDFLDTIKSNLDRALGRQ
Chain of IDH1 wt/IDH1 R132H heterodimer (O75874 whole entry R132H): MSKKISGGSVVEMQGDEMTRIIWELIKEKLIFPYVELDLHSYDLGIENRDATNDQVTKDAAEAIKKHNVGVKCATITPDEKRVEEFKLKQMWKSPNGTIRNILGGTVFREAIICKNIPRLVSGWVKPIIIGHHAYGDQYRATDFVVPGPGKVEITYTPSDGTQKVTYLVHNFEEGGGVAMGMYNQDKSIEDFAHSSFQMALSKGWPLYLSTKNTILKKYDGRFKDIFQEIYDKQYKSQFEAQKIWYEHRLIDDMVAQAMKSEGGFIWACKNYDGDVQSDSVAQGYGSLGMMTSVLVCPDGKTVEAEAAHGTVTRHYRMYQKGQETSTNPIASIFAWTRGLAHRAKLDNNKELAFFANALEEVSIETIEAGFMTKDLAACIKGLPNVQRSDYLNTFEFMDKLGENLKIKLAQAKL
Chain of IDH1 wt/IDH1 R132H heterodimer (O75874 whole entry, stated change not applied): as the sequence (O75874 whole entry R132H) above, with H132R counted along it
Chain of IDH1-R132H homodimer enzyme (O75874 whole entry R132H): as the sequence (O75874 whole entry R132H) above

SMILES	IC50 [1] [nM]	IC50 [2] [nM]	IC50 (IDH2 R140Q) [nM]	IC50 (HT1080 cells) [nM]	IC50 [3] [nM]	IC50 [4] [nM]
CC(Nc1nc(Nc2ccnc(C(F)(F)F)c2)nc(-c2cccc(C(F)(F)F)n2)n1)C(F)(F)F (stereo not drawn) [Compound 171]	< 50	50 to 100	< 50	100 to 1000	< 50	< 50
N#Cc1cc(F)cc(Nc2nc(NCC3CC3)nc(-c3cccc(C(F)(F)F)n3)n2)c1 [Compound 175]	< 50	50 to 100	< 50	100 to 1000	< 50	< 50
N#Cc1cc(Nc2nc(NC3CCC(F)(F)C3)nc(-n3ccc(C(F)(F)F)n3)n2)ccn1 (stereo not drawn) [Compound 179]	< 50	< 50	< 50	100 to 1000	< 50	< 50
CC[C@H](Nc1nc(N[C@@H](CC)C(F)(F)F)nc(-c2cccc(Cl)n2)n1)C(F)(F)F [Compound 180]	< 50	< 50	50 to 100	< 50	100 to 1000	< 50
FC1(F)CCC(Nc2nc(NC3CCC(F)(F)CC3)nc(-c3nc(C(F)(F)F)cs3)n2)CC1 [Compound 183]	< 50	100 to 1000	< 50	50 to 100	< 50	< 50
FC(F)c1cncc(-c2nc(NC3CCC(F)(F)CC3)nc(NC3CCC(F)(F)CC3)n2)n1 [Compound 186]	< 50	100 to 1000	< 50	100 to 1000	< 50	< 50
FC1(F)CCC(Nc2nc(NC3CCC(F)(F)C3)nc(-c3ccnc(C(F)(F)F)n3)n2)C1 (stereo not drawn) [Compound 194]	< 50	100 to 1000	50 to 100	50 to 100	50 to 100	< 50
Fc1cc(F)cc(Nc2nc(NC3CC(F)(F)C3)nc(-c3nc(F)ccc3F)n2)c1 [Compound 195]	< 50	50 to 100	< 50	100 to 1000	< 50	< 50
CC[C@H](Nc1nc(N[C@H](CC)C(F)(F)F)nc(-c2cccc(Cl)n2)n1)C(F)(F)F [Compound 196]	< 50	< 50	50 to 100	50 to 100	100 to 1000	< 50
FC1(F)CC(Nc2nc(Nc3ccnc(C(F)(F)F)c3)nc(-n3ccc(C(F)(F)F)n3)n2)C1 [Compound 197]	< 50	100 to 1000	< 50	100 to 1000	< 50	< 50
FC(F)(F)c1cc(Nc2nc(NCC3CC3)nc(-c3cccc(Cl)n3)n2)ccn1 [Compound 200]	< 50	50 to 100	< 50	> 1000	< 50	< 50
CC(Nc1nc(Nc2ccnc(C3(C#N)CC3)c2)nc(-n2ccc(C(F)(F)F)n2)n1)C(F)(F)F (stereo not drawn) [Compound 201]	< 50	50 to 100	< 50	50 to 100	< 50	< 50
FC1(F)CCC(Nc2nc(Nc3ccnc(-c4ccccc4)c3)nc(-c3cccc(C(F)(F)F)n3)n2)C1 (stereo not drawn) [Compound 202]	< 50	100 to 1000	< 50	100 to 1000	< 50	< 50
FC(F)c1csc(-c2nc(NC3CCC(F)(F)CC3)nc(NC3CCC(F)(F)CC3)n2)n1 [Compound 205]	< 50	100 to 1000	< 50	50 to 100	< 50	< 50
C[C@@H](Nc1nc(Nc2ccnc(C#N)c2)nc(-n2ccc(C(F)(F)F)n2)n1)C(F)(F)F [Compound 207]	< 50	50 to 100	< 50	100 to 1000	< 50	< 50
CC(F)(F)c1nc(-c2nc(NC3CC(F)(F)C3)nc(NC3CC(F)(F)C3)n2)cs1 [Compound 209]	< 50	100 to 1000	< 50	100 to 1000	< 50	< 50
N#Cc1cc(Nc2nc(NC3CC(F)(F)C3)nc(-n3ccc(C(F)(F)F)n3)n2)ccn1 [Compound 210]	< 50	50 to 100	< 50	100 to 1000	< 50	< 50
CC(F)(F)c1cccc(-c2nc(Nc3ccnc(C4(C#N)CC4)c3)nc(NC3CCC(F)(F)CC3)n2)n1 [Compound 211]	< 50	100 to 1000	< 50	100 to 1000	< 50	< 50
FC1(F)CCC(Nc2nc(NC3CCC(F)(F)CC3)nc(-c3cccc(Cl)n3)n2)CC1 [Compound 212]	< 50	100 to 1000	< 50	50 to 100	< 50	< 50
N#CC1(c2cc(Nc3nc(NCC(F)(F)F)nc(-c4cccc(Cl)n4)n3)ccn2)CC1 [Compound 215]	< 50	50 to 100	< 50	100 to 1000	< 50	< 50
FC1(F)CC(CNc2nc(NCC3CC(F)(F)C3)nc(-c3cccc(C(F)(F)F)n3)n2)C1 [Compound 216]	< 50	100 to 1000	< 50	100 to 1000	< 50	< 50
CC(Nc1nc(Nc2ccnc(-c3ccccc3)c2)nc(-c2cccc(C(F)(F)F)n2)n1)C(F)(F)F (stereo not drawn) [Compound 217]	< 50	50 to 100	< 50	100 to 1000	< 50	< 50
FC1(F)CCC(Nc2nc(Nc3ccnc(-c4ccccc4)c3)nc(-c3cccc(C(F)(F)F)n3)n2)CC1 [Compound 220]	< 50	50 to 100	50 to 100	100 to 1000	50 to 100	< 50
FC1(F)CC(CNc2nc(Nc3ccnc(C(F)(F)F)c3)nc(-c3cccc(C(F)(F)F)n3)n2)C1 [Compound 221]	< 50	100 to 1000	< 50	> 1000	< 50	< 50
FC(F)(F)CNc1nc(Nc2ccnc(C(F)(F)F)c2)nc(-c2cccc(C(F)(F)F)n2)n1 [Compound 232]	< 50	100 to 1000	< 50	> 1000	< 50	< 50
Nc1ccc(F)c(-c2nc(NC3CCC(F)(F)CC3)nc(NC3CCC(F)(F)CC3)n2)n1 [Compound 249]	50 to 100	> 1000	< 50	100 to 1000	100 to 1000	50 to 100
FC1(F)CC(Nc2nc(NC3CC(F)(F)C3)nc(-c3ccnc(C(F)(F)F)n3)n2)C1 [Compound 251]	50 to 100	100 to 1000	< 50	100 to 1000	100 to 1000	< 50
